Data published in US11111500B2, “Mutated protoporphyrinogen IX oxidase (PPX) genes” (CIBUS US LLC, priority 2010, dated 2021).

Tested on: potato plastidal PPX
Assay: Tolerance to sulfentrazone of HemG mutant E. coli complemented with potato plastidal PPX (plate selection, colony count)
Type: cell-based, Solanum tuberosum
Settings: wild-type potato plastidal PPX clone in hemG mutant E. coli
Description: StcPPX1, less its chloroplast transit peptide was cloned from cDNA into Cibus' proprietary functional screening vector. This vector may be used both for functional screening, and for GRON QC. The potato PPX genes were used to complement the HemG mutant strain of E. coli, which lacks a functional HemG gene, a bacterial homolog of PPX. Without a complementing gene, the media must be supplemented with hematin for E. coli growth.
In order to assess mutations that confer tolerance to PPX inhibitors such as Chateau (flumioxazin-Valent/Sumitomo), Naja (diphenylether—MAI) or Kixor (saflufenacil—BASF). Pure active ingredients for the PPX inhibiting herbicides Chateau (flumioxazin—Valent/Sumitomo), Spartan (sulfentrazone—FMC) and Kixor/Sharpen (saflufenacil—BASF) were obtained. […]
Liquid culture selection conditions were developed for both sulfentrazone and flumioxazin. […] Spectrophotometric readings (OD600) were taken for each sample (1:4 dilution) and a sample of each plated on LB-Chlor-IPTG plates to determine whether the OD600 correlated with the number of viable colonies. […]
Randomly mutagenized plasmids (5′ and 3′ ends) were transformed into XL1-Blue E. coli cells. […] Colony counts were compared between the two and mutation tolerance determined based on the percentage of colonies on the 0.75 mM sulfentrazone plates as compared with those on the 0 mM plates. […]

Q: Which “sulfentrazone concentration on which the wildtype construct did not grow” value does the source give for `Cc1nn(-c2cc(NS(C)(=O)=O)c(Cl)cc2Cl)c(=O)n1C(F)F` [sulfentrazone] here?
A: Its value is 2.5 mM.
